Measured values taken from ChEMBL document CHEMBL1149176, “(2R)-2-ethylchromane-2-carboxylic acids: discovery of novel PPARalpha/gamma dual agonists as antihyperglycemic and hypolipidemic agents” (J Med Chem, 2004).

Legend:
[1] = molecular target: T1, Peroxisome proliferator-activated receptor gamma (Homo sapiens, UniProt P37231); assay: In vitro transcriptional activation by human PPAR gamma Gal4 chimera
T1 sequence (P37231 whole entry): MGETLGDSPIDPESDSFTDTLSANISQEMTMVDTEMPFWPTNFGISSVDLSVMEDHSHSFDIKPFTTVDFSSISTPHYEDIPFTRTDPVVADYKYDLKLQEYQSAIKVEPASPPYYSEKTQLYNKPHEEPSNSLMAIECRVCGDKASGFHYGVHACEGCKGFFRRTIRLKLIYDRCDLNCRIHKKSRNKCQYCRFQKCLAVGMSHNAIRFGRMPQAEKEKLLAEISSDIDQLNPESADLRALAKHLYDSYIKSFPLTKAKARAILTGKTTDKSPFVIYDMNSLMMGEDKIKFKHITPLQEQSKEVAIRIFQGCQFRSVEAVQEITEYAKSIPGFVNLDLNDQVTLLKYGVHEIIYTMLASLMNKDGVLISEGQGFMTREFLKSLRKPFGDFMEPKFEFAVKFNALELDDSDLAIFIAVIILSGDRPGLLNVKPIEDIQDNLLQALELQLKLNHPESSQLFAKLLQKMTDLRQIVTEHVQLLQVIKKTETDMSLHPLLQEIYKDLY

[2] = molecular target: T1, Peroxisome proliferator-activated receptor gamma; assay: In vitro binding affinity for human peroxisome proliferator activated receptor gamma using scintillation proximity assay (SPA)
[3] = molecular target: T2, Peroxisome proliferator-activated receptor alpha (Homo sapiens, UniProt Q07869); assay: In vitro potency of PPAR gene activation against human Peroxisome proliferator activated receptor alpha using chimeric Gal4-hPPAR transactivation assay (TA)
T2 sequence (Q07869 whole entry): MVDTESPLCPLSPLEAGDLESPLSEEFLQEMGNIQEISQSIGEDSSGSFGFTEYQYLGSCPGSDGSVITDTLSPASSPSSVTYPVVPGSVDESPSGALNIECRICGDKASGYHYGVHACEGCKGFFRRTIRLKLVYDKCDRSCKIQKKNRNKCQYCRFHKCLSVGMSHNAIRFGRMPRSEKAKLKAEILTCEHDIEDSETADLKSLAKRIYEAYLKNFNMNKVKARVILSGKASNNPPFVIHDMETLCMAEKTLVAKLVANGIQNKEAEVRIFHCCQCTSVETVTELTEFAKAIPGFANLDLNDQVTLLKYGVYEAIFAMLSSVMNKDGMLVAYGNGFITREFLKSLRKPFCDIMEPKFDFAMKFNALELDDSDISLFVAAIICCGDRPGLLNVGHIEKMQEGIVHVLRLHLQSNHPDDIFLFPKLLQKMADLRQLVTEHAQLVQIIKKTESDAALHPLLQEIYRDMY

[4] = molecular target: T2, Peroxisome proliferator-activated receptor alpha
Description: In vitro binding affinity for human peroxisome proliferator activated receptor alpha using scintillation proximity assay (SPA)

[5] = molecular target: T3, Peroxisome proliferator-activated receptor delta (Homo sapiens, UniProt Q03181)
T3 sequence (Q03181 whole entry): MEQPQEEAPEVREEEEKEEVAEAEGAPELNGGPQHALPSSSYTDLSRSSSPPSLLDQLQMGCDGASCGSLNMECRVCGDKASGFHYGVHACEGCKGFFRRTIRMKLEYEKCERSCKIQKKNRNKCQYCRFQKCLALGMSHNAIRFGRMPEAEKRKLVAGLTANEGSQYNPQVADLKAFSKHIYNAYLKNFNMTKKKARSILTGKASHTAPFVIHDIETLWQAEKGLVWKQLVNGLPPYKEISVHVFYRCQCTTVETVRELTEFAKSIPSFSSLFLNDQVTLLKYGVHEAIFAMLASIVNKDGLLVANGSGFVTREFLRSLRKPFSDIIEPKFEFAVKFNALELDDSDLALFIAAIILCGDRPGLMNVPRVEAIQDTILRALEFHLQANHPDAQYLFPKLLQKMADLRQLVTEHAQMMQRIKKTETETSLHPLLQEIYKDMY

[6] = molecular target: T1, Peroxisome proliferator-activated receptor gamma
Description: In vitro binding affinity for human PPAR gamma receptor using scintillation proximity assay (SPA)

[7] = molecular target: T2, Peroxisome proliferator-activated receptor alpha; assay: In vitro transcriptional activation by human PPAR alpha Gal4 chimera; Not active
[8] = molecular target: T1, Peroxisome proliferator-activated receptor gamma; remark: listed apart in the source
Description: In vitro potency of PPAR gene activation against human PPAR gamma receptor using chimeric Gal4-hPPAR transactivation assay (TA)

Canis familiaris = assay: In vivo percent change in serum cholesterol in dogs at 50 mg/kg; format: functional, Canis lupus familiaris
Cricetinae gen. sp. [9] = assay: In vivo percent change in triglyceride in hamsters at 100 mg/kg; format: functional, Cricetulus griseus
Cricetinae gen. sp. [10] = assay: In vivo serum cholesterol in hamsters at 100 mg/kg; format: functional, Cricetulus griseus
Cricetinae gen. sp. [11] = assay: In vivo percent change in serum cholesterol in hamsters at 100 mg/kg; format: functional, Cricetulus griseus

Row | Compound | EC50 [1] | IC50 [2] | EC50 [3] | IC50 [4] | IC50 [5] | IC50 [6] | EC50 [7] | EC50 [8] | Change (Canis familiaris) | Change (Cricetinae gen. sp. [9]) | Activity (Cricetinae gen. sp. [10]) | Change (Cricetinae gen. sp. [11])
1 | CCC1(C(=O)O)CCc2ccc(OCCCOc3ccc(Oc4ccccc4)cc3F)cc2O1 (centres undefined) | 1000 nM | 4700 nM | 50 nM | 370 nM | > 50000 nM | – | – | – | – | – | – | –
2 | CCCc1cc(Oc2ccc(S(C)(=O)=O)cc2)ccc1OCCCOc1ccc2c(c1)OC(CC)(C(=O)O)CC2 (centres undefined) | – | – | – | > 15000 nM | > 50000 nM | 370 nM | Not Active | 2800 nM | – | – | – | –
3 | CCCc1cc(Oc2ccccc2)ccc1OCCCOc1ccc2c(c1)CCC(C)(C(=O)O)O2 (centres undefined) | – | 1700 nM | – | 3300 nM | > 50000 nM | – | Not Active | 6800 nM | – | – | – | –
4 | CCCc1cc(Oc2ccccc2)ccc1OCCCCOc1ccc2c(c1)CCC(C(=O)O)O2 (centres undefined) | – | 3000 nM | – | 5800 nM | > 50000 nM | – | Not Active | 2500 nM | – | – | – | –
5 | CCCc1cc(Oc2ccccc2)ccc1OCCCOc1ccc2c(c1)OC(C)(C(=O)O)CC2 (centres undefined) | – | 750 nM | 100 nM | 1900 nM | > 50000 nM | – | – | 1000 nM | – | – | – | –
6 | CCCc1cc(Oc2ccccc2)ccc1OCCCOc1ccc2c(c1)OC(C(=O)O)CC2 (centres undefined) | – | 980 nM | 3000 nM | 1500 nM | 170 nM | – | – | 7300 nM | – | – | – | –
7 | CCC1(C(=O)O)CCc2ccc(OCCCOc3ccc(Oc4ccccc4)cc3Cl)cc2O1 (centres undefined) | – | – | 30 nM | 120 nM | > 15000 nM | 690 nM | – | 160 nM | – | – | – | –
8 | CCC1(C(=O)O)CCc2ccc(OCCCOc3ccc(Oc4ccccc4)cc3)cc2O1 (centres undefined) | 10000 nM | > 15000 nM | 220 nM | 1700 nM | > 50000 nM | – | – | – | – | – | – | –
9 | CCCc1cc(Oc2ccccc2)ccc1OCCCOc1ccc2c(c1)OC(CCC)(C(=O)O)CC2 (centres undefined) | – | 370 nM | 120 nM | 2100 nM | > 50000 nM | – | – | 830 nM | – | – | – | –
10 | CCCc1cc(Oc2ccccc2)ccc1OCCCCOc1ccc2c(c1)CCC(C)(C(=O)O)O2 (centres undefined) | – | 2300 nM | – | 2000 nM | > 50000 nM | – | Not Active | 1200 nM | – | – | – | –
11 | CC(C)OC(=O)C(C)(C)Oc1ccc(C(=O)c2ccc(Cl)cc2)cc1 [FENOFIBRATE] | – | – | – | – | – | – | – | – | -16.3% | -44% | 67 mg/dL | -38%
